# Source: EP0907731B1, “METABOTROPIC GABA(B) RECEPTORS, RECEPTOR-SPECIFIC LIGANDS AND THEIR USES” (Novartis AG, priority 1996, dated 1997)
# “Also recorded” adds a separate entry of the source. Where two headings read alike, the source gives them in different places.
# Columns and labels:
# GABAB receptors = conditions: inhibition of [125I]CGP 64213 binding, native receptors; read-out: Rat cerebral cortex IC50
# Procedure: The animals are decapitated, the brains removed, the cerebral cortices dissected and homogenised in 10 volumes of ice-cold 0.32 M sucrose, containing MgCl2 (1 mM) and K2HPO4 (1 mM), with a glass/Teflon homogeniser. The membranes are centrifuged at 1000 x g for 15 min, the pellet resuspended and the centrifugation repeated. The supernatants are pooled and centrifuged at 20000 x g for 15 min. The pellet is osmotically shocked by resuspension in 10 volumes H2O and kept on ice for 30 min. […] The membranes are thawed at room temperature, washed three times with Krebs-Henseleit buffer by centrifugation at 20000 x g for 15 min, left overnight at 4°C and washed again three times. The final pellet is resuspended with a glass/Teflon homogenise in 20 ml of the same buffer. 2 ml aliquots are frozen and stored in liquid nitrogen. Just before use membranes are thawed quickly in a water bath at 37°C and again washed by centrifugation at 20000 x g for 15 min with the same buffer three times.
# The incubation is terminated by filtration through GF/B Whatman glass fibre filters.
# [1] = target: recombinant GABABR1a receptors; conditions: read-out: COS 1 cells IC50, inhibition of [125I]CGP 64213 binding
# Procedure: In order to isolate membranes containing the cloned GABAB receptor, culture dishes containing GABAB receptor-expressing COS cells are washed twice with Krebs-Henseleit-Tris buffer. Afterwards the cells are scraped off the dishes, homogenised in a glass-glass homogeniser and centrifuged for 30 min at 4°C at 40'000 g. The homogenisation and centrifugation step is repeated once. The pellet is resuspended in buffer and stored in liquid nitrogen until further analysis.
# GABABR1a = target: T1, GABABR1a (Rattus norvegicus, UniProt Q9Z0U4); assay: Forskolin-stimulated cAMP accumulation in HEK293 cells stably expressing GABABR1a; assay type: cell-based; conditions: 10 µM antagonist, 300 µM L-baclofen
# T1 construct: either the full-length cDNA clones disclosed herein or fragments thereof can be used as probes; expressed in transfected cells
# Excerpt: GABAB receptors are described to inhibit adenylate cyclase activity, stimulate phospholipase A2, activate K^+-channels, inactivate voltage-dependent Ca^2+-channels and to modulate inositol phospholipid hydrolysis. As GABABR1a and -b have identical sequence in all domains predicted to be intracellular they are expected to be able to couple to the same effector systems. […] We chose concentrations of forskolin and L-baclofen that should produce a maximal effect.
# native GABAB receptors = assay: Photoaffinity labelling of membranes with [125I]CGP 71872 in the presence of competitor substances; assay type: binding, rat
# Procedure: The incubation is terminated by centrifugation at 20 000 x g for 10 min at 4°C. This step removed free unbound photoaffinity label. […] The suspension is centrifuged at 20 000 x g for 10 min and resuspended at a concentration of 8mg/ml protein in buffer. […] The labelled membranes could be stored at -80°C.
# Furthermore, native GABAB receptors are photoaffinity-labelled in the presence of various competitor substances indicated in Figure 4b.
# [2] = system: non-transfected HEK293 cells; assay: Forskolin-stimulated cAMP formation in non-transfected HEK293 cells (control); assay type: cell-based; conditions: untransfected HEK293 cells
# Procedure: • Figure 1 a depicts the expression of the recombinant GABABR1a receptor in COS1 cells. […]. Autoradiography of a 6% SDS gel with 25µg protein loaded per lane is shown. […]. The apparent molecular weight of native and recombinant GABAB receptors are estimated from gel mobilities relative to those of SDS-PAGE standards (BioRad). […]. Cell membranes of the tissues indicated are photoaffinity-labelled with [[…] and subjected to SDS-PAGE and autoradiography. a, b, Selectivity of the photoaffinity ligand [[…]. a, Differential distribution of GABAB receptor variants of 130K and 100K in tissues of the nervous system. […]. Incubation of membrane extracts with the photoaffinity ligand is carried out in the presence of competitor substances at the concentrations indicated, c, GABAB receptors are N-glycosylated. Photoaffinity-labelled rat cortex cell membranes are incubated with 0.4 units N-glycosidase F or 0.6 milliunits O-glycosidase (Boehringer Mannheim). d, Photolabelling of GABAB receptors from different species. […]
# GABAB receptors are described to inhibit adenylate cyclase activity, stimulate phospholipase A2, activate K^+-channels, inactivate voltage-dependent Ca^2+-channels and to modulate inositol phospholipid hydrolysis. […] The ability of GABABR1a stably expressed in HEK293 cells to reduce forskolin-stimulated CAMP accumulation is analysed (Fig. 5). […]
# [3] = system: rat cortical slice preparations; conditions: cited from earlier work
# T1 sequence (Q9Z0U4 20-960): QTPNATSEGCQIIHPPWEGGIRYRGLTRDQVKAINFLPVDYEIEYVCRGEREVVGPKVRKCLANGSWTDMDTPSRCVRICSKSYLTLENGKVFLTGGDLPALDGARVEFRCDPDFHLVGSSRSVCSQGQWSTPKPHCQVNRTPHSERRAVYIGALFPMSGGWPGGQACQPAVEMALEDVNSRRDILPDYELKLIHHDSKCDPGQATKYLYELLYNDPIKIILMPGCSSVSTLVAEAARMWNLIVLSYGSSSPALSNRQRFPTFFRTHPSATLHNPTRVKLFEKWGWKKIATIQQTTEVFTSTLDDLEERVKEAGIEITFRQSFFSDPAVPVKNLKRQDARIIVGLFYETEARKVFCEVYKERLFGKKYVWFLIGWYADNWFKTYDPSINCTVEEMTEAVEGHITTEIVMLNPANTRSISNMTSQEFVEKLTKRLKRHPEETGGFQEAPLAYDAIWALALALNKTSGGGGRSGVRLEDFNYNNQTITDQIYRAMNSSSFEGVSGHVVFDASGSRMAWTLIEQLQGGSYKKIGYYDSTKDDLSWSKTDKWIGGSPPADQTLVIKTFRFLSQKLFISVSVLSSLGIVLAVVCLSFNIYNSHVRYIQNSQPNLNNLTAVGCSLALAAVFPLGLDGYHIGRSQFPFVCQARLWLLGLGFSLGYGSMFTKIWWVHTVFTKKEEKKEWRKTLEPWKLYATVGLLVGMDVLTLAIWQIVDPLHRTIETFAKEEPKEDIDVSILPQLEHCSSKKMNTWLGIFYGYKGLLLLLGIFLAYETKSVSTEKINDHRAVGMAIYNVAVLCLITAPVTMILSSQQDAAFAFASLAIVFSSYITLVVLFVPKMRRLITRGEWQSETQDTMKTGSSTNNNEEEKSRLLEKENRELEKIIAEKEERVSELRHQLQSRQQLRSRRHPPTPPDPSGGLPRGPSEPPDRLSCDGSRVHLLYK
smiles,measurement,setting,value
NCCCP(=O)(O)C(F)F [CGP 47656],IC50,GABAB receptors,0.28 µM
same,IC50,[1],12.3 µM
C[C@H](NC[C@H](O)CP(=O)(O)CC1CCCCC1)c1ccc(Cl)c(Cl)c1 [CGP 54626A],effect on the L-baclofen inhibition of forskolin-stimulated cAMP accumulation,GABABR1a,antagonised
same,[125I]CGP 71872 labelling in the presence of excess unlabelled antagonist,native GABAB receptors,no radioactivity is bound to the membranes
same,[125I]CGP 71872 labelling in the presence of excess unlabelled antagonist,native GABAB receptors; listed as CGP54626A,inhibited
NC[C@H](CC(=O)O)c1ccc(Cl)cc1 [L-baclofen],inhibition of forskolin-stimulated cAMP formation,[2],No L-baclofen response; also recorded: does not inhibit
same,reduction of forskolin-stimulated cAMP accumulation,[3],about 40%
